The text below walks through data of ChEMBL document CHEMBL4823253, “Structure-Based Design of Selective LONP1 Inhibitors for Probing In Vitro Biology” (J Med Chem, 2021).

The structures appear in SMILES notation. Calls of active or inactive are those of the source. No cut-off for these calls is given here.

Test [1] concerns the target 20S proteasome. Put plainly: Inhibition of human erythrocytes 20S proteasome using QXL520-YRGITCSGRQK(5-FAM)-NH2 fluorogenic peptide as substrate preincubated for 10 mins followed by substrate addition and measured after 60 mins by HTRF assay. As to conditions: erythrocyte. On the technique in general: In TR-FRET formats the signal depends on donor and acceptor labels being close together.

Test [2] deals with T1, Lon protease homolog, mitochondrial (Homo sapiens, UniProt P36776).
T1 sequence (P36776 whole entry): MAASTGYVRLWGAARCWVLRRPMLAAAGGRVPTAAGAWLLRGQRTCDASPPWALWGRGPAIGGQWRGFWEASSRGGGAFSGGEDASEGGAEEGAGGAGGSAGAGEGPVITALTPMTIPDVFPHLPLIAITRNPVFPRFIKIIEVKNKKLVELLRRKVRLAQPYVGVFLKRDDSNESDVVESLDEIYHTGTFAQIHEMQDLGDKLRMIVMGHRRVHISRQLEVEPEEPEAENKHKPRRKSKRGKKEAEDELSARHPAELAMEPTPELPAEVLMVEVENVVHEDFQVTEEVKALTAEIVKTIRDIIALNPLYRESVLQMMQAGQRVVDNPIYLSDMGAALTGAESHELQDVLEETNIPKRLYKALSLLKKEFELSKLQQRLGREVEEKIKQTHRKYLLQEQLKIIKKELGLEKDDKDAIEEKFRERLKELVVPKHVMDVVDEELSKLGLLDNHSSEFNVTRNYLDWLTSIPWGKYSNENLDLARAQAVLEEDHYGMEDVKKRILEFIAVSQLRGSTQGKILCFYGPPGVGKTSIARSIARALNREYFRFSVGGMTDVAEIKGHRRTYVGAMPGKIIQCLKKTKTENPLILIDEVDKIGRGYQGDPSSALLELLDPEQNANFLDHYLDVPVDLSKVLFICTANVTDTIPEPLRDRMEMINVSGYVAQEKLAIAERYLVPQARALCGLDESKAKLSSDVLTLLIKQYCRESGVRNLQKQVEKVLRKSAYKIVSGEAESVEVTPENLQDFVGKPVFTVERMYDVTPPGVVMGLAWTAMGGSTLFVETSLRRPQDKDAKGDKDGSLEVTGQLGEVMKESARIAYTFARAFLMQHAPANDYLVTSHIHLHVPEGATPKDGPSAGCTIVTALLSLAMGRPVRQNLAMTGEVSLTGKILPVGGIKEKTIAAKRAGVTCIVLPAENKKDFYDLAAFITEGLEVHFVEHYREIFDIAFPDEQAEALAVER
The experiment in a line: Inhibition of LONP1 (unknown origin) using QXL520-YRGITCSGRQK(5-FAM)-NH2 peptide as substrate incubated for 50 mins in presence of ATP by HTRF assay.

Test [3] concerns the target T2, Cobalamin trafficking protein CblD (Homo sapiens) (UniProt Q9H3L0).
T2 sequence (whole entry): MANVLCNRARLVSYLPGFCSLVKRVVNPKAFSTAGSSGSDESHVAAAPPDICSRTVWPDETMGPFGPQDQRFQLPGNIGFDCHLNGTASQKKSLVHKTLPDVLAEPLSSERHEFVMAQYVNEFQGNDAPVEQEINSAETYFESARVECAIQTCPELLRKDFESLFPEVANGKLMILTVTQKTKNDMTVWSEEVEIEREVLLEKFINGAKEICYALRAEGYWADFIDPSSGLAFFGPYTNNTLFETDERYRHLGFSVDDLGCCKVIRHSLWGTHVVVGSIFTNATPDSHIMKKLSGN
The experiment in a line: Binding affinity to MMADHC in human LONP1 dependent NCI-H1944 cells assessed as increase in protein abundance at 10 uM by WES analysis relative to control. Type of test: cell-based.

Test [4] addresses T2, Cobalamin trafficking protein CblD (Homo sapiens). Put plainly: Binding affinity to MMADHC in human Flp-In-T-REx-293 stably expressing 3X-FLAG-tagged LOPN1 assessed as increase in protein abundance by mass spectrometric analysis.
For test [5] the target is unchanged. Put plainly: Binding affinity to MMADHC in human LONP1 dependent NCI-H1568 cells assessed as increase in protein abundance relative to control. Type of test: cell-based.
Test [6] has the same target. Put plainly: Binding affinity to MMADHC in human LONP1 dependent Calu-6 cells assessed as increase in protein abundance by HTRF assay relative to control.

Broadly, the IC50 is the concentration needed to halve the response being measured. Take `CC(C)C[C@H](NC(=O)[C@H](NC(=O)c1cnccn1)C(C)(C)C)B(O)O`: the IC50 was greater than 10000 nM in test [1] and 2850 nM in test [2].

Consider `CC(C)C[C@H](NC(=O)[C@H](NC(=O)c1cnccn1)C(C)C)B(O)O`, for which the IC50 in test [1] was 3970 nM; in test [2], 546 nM.

For `O=C(N[C@H](Cc1ccccc1)C(=O)N[C@@H](CC1CCCCC1)B(O)O)c1cnccn1`, the IC50 in test [1] came out at 541 nM; in test [2], 92 nM.

In the case of `CC(C)CCC[C@H](NC(=O)[C@@H](Cc1ccccc1)NC(=O)c1cnccn1)B(O)O`, the IC50 in test [1] amounted to 1040 nM; in test [2] it was 65 nM.

Regarding `O=C(N[C@H](Cc1ccccc1)C(=O)N[C@@H](CCc1ccccc1)B(O)O)c1cnccn1`, the values for the IC50 in test [1] and in test [2] were 262 nM and 34 nM, respectively.

Regarding `CCC[C@@H](NC(=O)c1cnccn1)C(=O)N[C@@H](CCCc1ccccc1)B(O)O`, the results for the IC50 in test [1] and in test [2] were greater than 10000 nM and 17 nM, respectively.

Turning to `O=C(N[C@H](Cc1ccccc1)C(=O)N[C@@H](CCCCCBr)B(O)O)c1cnccn1`, the IC50 in test [1] amounted to 1940 nM; in test [2] it was 77 nM.

Consider `CCCC[C@@H](NC(=O)c1cnccn1)C(=O)N[C@@H](CC(C)C)B(O)O`, for which the IC50 was greater than 10000 nM in test [1] and 93 nM in test [2].

With `CC[C@@H](NC(=O)c1cnccn1)C(=O)N[C@@H](CC(C)C)B(O)O`, the IC50 in test [1] was greater than 10000 nM; in test [2] it was 408 nM.

Turning to `CC(C)C[C@H](NC(=O)[C@@H](C)NC(=O)c1cnccn1)B(O)O`, the IC50 in test [1] stood at 2680 nM; in test [2] it was 433 nM.

With `O=C(N[C@H](Cc1ccccc1)C(=O)N[C@@H](CCCc1ccccc1)B(O)O)c1cnccn1`, the IC50 came out at 259 nM in test [1] and 18 nM in test [2].

In the case of `CCC[C@@H](NC(=O)c1cnccn1)C(=O)N[C@@H](CCc1ccccc1)B(O)O`, the IC50 is greater than 10000 nM in test [1] and 92 nM in test [2].

For the compound `CCC[C@@H](NC(=O)c1cnccn1)C(=O)N[C@@H](CC(C)C)B(O)O`, the IC50 is greater than 10000 nM in test [1] and 187 nM in test [2].

For `CCC[C@@H](NC(=O)c1cnccn1)C(=O)N[C@@H](Cc1ccccc1)B(O)O`, the IC50 was greater than 10000 nM in test [1] and 556 nM in test [2].

Take `CCC[C@@H](NC(=O)c1oc(C)nc1C)C(=O)N[C@@H](CCCc1ccccc1)B(O)O`: the IC50 was greater than 10000 nM in test [1] and 59 nM in test [2]. The fold change (FC) in test [3], in test [5] and in test [6] was 30 in each case. For the same compound, the outcome in test [4] was Active.

`CC(C)C[C@H](NC(=O)[C@@H](CC1CCCCC1)NC(=O)c1cnccn1)B(O)O`: the IC50 was 843 nM in test [1] and 137 nM in test [2].

With `CCC[C@@H](NC(=O)c1cnccn1)C(=O)N[C@@H](CC1CCCCC1)B(O)O`, the IC50 in test [1] is greater than 10000 nM; in test [2] it was 136 nM.

Turning to `O=C(N[C@H](Cc1ccccc1)C(=O)N[C@@H](Cc1ccccc1)B(O)O)c1cnccn1`, the figures for the IC50 in test [1] and in test [2] were 679 nM and 109 nM, respectively.

Turning to `CCCC[C@H](NC(=O)[C@@H](CCC)NC(=O)c1cnccn1)B(O)O`, the IC50 is greater than 10000 nM in test [1] and 38 nM in test [2].

On to `CC(C)C[C@H](NC(=O)C(C)(C)NC(=O)c1cnccn1)B(O)O`, for which the IC50 in test [2] turned out to be 6200 nM.
